Results on 9 compounds are retold here after PubChem BioAssay (NCI).

Common to all, as to assay: inhibition of tumour cell growth, NCI panel, 48 h
Test [1] concerns SF-295 CNS.
Test [2] deals with SK-MEL-5 melanoma.
Test [3] has as its system K-562 leukemia.
The test system of test [4] is EKVX NSCLC.
The test system of test [5] is RPMI-8226 leukemia.
Test [6] deals with CCRF-CEM leukemia.
Test [7] has as its system COLO 205 colon.
In test [8] the test system is UACC-257 melanoma.
Test [9] concerns OVCAR-4 ovarian.
Test [10] relates to SNB-19 CNS.

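Growth conditions: 96-well plates. Treatment: test compound, 48 hours, 5 concentrations. Analysis: linear interpolation between bracketing concentrations; unreached endpoints set to highest concentration. Abbreviation: GI50, concentration required for 50% inhibition of growth. TGI marks complete inhibition of growth.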

Take `COc1ccc(-c2ccc(OC)c(OC)c2OC)cc1`: the GI50 in test [1] was 1.7 µM; in test [2], 2.68 µM; in test [3], 0.431 µM; in test [4] it was 4.1 µM; in [5], 3.27 µM; in test [6], 2.19 µM. For the same compound, the GI50 in test [7] was 1.74 µM; in test [8] it was greater than 73.8 µM; in [9], 5.42 µM; in test [10] it was 4.83 µM. For the same compound, the TGI is greater than 100 µM in test [1]; greater than 45.2 µM in [2]; greater than 100 µM in test [3]; greater than 100 µM in test [4]; greater than 100 µM in test [5]; greater than 100 µM in test [6]. The TGI in [7] was 6.83 µM; in [8], greater than 100 µM; in [9], greater than 100 µM; in test [10], greater than 100 µM.

In the case of `Nc1cc2c3c(cccc3c1)C(=O)N(CCN1CCCC1)C2=O`, the GI50 in test [1] is 2.59 µM; in [2] it was 1.65 µM; in [3], 3.75 µM; in [4] it was 3.69 µM; in [5], 1.23 µM; in [6] it was 3.88 µM. Further, the GI50 was 1.68 µM in test [7], 3.35 µM in [8], 4.75 µM in test [9] and 3.33 µM in test [10]. In addition, the TGI in test [1] was 11.2 µM; in test [2], 4.01 µM; in [3], greater than 37.6 µM; in test [4], 54.2 µM; in test [5] it was 11.9 µM; in test [6] it was greater than 35.6 µM. Also, the TGI turned out to be 10.3 µM in test [7], 24.5 µM in [8], 42.5 µM in test [9] and 29 µM in [10].

`Clc1ccccc1C(Nc1cnccn1)Nc1cnccn1`: the TGI in [1], in test [2], in [3], in test [4], in [5] and in test [6] was greater than 100 µM throughout. The TGI in [7], in test [8], in [9] and in [10] was greater than 100 µM in each case.

With `COC1=CC(c2ccc[nH]2)=N/C1=C\c1[nH]c(C)c(C(=O)CCCCCCCCC(=O)O[C@H]2CC[C@H]3C4CCc5cc(O)ccc5C4CC[C@]23C)c1C` (stereo not given in full), the GI50 is 1.09 µM in test [1]; 0.139 µM in [2]; 0.267 µM in test [3]; 0.461 µM in test [4]; 1.63 µM in test [5]; 0.117 µM in test [6]. For the same compound, the GI50 was 0.332 µM in test [7], 3.62 µM in [8], 0.343 µM in test [9] and 3.16 µM in [10]. Further, the TGI in test [1] was greater than 43.8 µM; in test [2] it was 0.456 µM; in test [3], greater than 50 µM; in test [4], greater than 50 µM; in [5], greater than 50 µM; in test [6], greater than 50 µM. The TGI in [7], in test [8], in test [9] and in [10] was greater than 50 µM each time.

Turning to `N#C/C(=C\c1ccc2[nH]ccc2c1)C(=O)NCCCCNC(=O)/C(C#N)=C/c1ccc2[nH]ccc2c1`, the TGI in test [1] was greater than 31.6 µM; in test [2], greater than 31.6 µM; in test [3], greater than 31.6 µM; in test [4], greater than 31.6 µM; in test [5], greater than 10 µM; in [6] it was greater than 31.6 µM. The TGI in test [7], in [8], in test [9] and in [10] was greater than 31.6 µM throughout.

Turning to `CCCC(=O)O[C@]1(C)CC[C@@H]2[C@H]3[C@@H]1[C@@H]1C[C@@](C)(O)[C@H](OC)CC[C@](C)(OC(=O)[C@@H]2C)[C@H]3O1`, the GI50 in test [1] was 30 µM; in [2], 34.9 µM; in [3], 14.4 µM; in test [4], 47.3 µM; in test [5], 13.8 µM; in test [6], 2.35 µM. The GI50 in test [7] was 33.7 µM; in test [8], 24.5 µM; in test [9], 22.1 µM; in test [10] it was 32.1 µM. Besides, the TGI in test [1] is greater than 100 µM; in test [2] it was greater than 100 µM; in [3], 27.5 µM; in test [4] it was greater than 100 µM; in [5], 26.8 µM; in test [6] it was 13.9 µM. In addition, the TGI was greater than 100 µM in test [7], 60.7 µM in test [8], 50 µM in test [9] and greater than 100 µM in test [10].

Turning to `CCCCCCCC(=O)OCC/C=C/C1OC1C1OC(=O)/C=C\C=C\C(=O)N(C(C)=O)C(=O)/C=C(/C)CCC2OC2C1OC(=O)NC(C)=O` (stereo not given), the GI50 is 2.16 µM in test [1]; 7.03 µM in test [2]; 4.78 µM in test [3]; greater than 25 µM in [4]; 0.959 µM in test [5]; 0.734 µM in test [6]. Moreover, the GI50 in test [7] is 3.27 µM; in [8], 9.38 µM; in test [9] it was 7.37 µM; in test [10], greater than 25 µM. The TGI in [1] is 9.9 µM; in test [2], greater than 25 µM; in [3], greater than 25 µM; in test [4], greater than 25 µM; in test [5], 4.03 µM; in test [6] it was greater than 25 µM. Besides, the TGI in [7] is 6.86 µM; in [8], greater than 25 µM; in test [9], greater than 25 µM; in test [10], greater than 25 µM.

As to `CC(C)(C)C#COC(=O)c1ccccc1`, the TGI in test [1], in test [2], in [3], in test [4], in [5] and in [6] was greater than 100 µM in each case. For the same compound, the TGI in [7], in test [8], in [9] and in test [10] was greater than 100 µM in each case.

Regarding `CC(C)Cc1cnc(CC(C)C)c(=O)[nH]1`, the TGI in test [1], in test [2], in test [3], in [4], in test [5] and in test [6] was greater than 100 µM each time. Further, the TGI in [7], in test [8], in test [9] and in [10] was greater than 100 µM each time.
